The values below come from patent US20210253718A1, “FRIZZLED5 PROTEIN-BINDING AGENTS” (Modmab Therapeutics Corporation, priority 2016, published 2021).

Holding throughout (format): cell-based, human
One test deals with HPAF-II cells. Description: Crystal violet staining proliferation (clonogenic growth) assay. To be noted: 100 nM LGK974. On the procedure:
Crystal Violet Staining Proliferation Assay: HPAFII Cas9 cells were transduced with lentivirus generated with the indicated pLCKO plasmid as described above. 24 hours after infection cells were treated with puromycin. After 48 hours of selection, cells were PBS washed extensively, dissociated and counted. 2000 cells per well were re-seeded in 24-well format in media without puromycin. 24 hours post seeding, indicated wells were treated with DMSO control or 100 nM LGK974 (Cayman Chemical #14072) (note that these wells were from the LacZ gRNA population). Medium was renewed every 3-4 days and cells were fixed, 10 days post plating, using 100% ice-cold methanol. After fixation cells were stained with 0.5% crystal violet, 25% methanol solution for 20 minutes at room temperature, after which staining solution was removed and plates were washed several times in dH2O.
To validate the screen results HPAF-II cells were first infected with lentivirus coding for various gRNAs, transduced cells were selected for 48 hours and plated in clonogenic growth assays. […] In contrast, the growth of PANC-1 and BxPC-3 cell lines, which are wild-type for RNF43, was not inhibited by gRNAs targeting FZD5, FZD7 or CTNNB1 (FIG. 4C and FIG. 5).

The test system of another test is PaTu-8988S cells. The test can be described thus: Cell viability assay (Alamar Blue) in PDAC cell lines, LGK974 comparator. In general terms: Alamar Blue is a resazurin reagent that responds to reducing activity.
For the next test, the system named is MUC5AC. Description: RT-qPCR of differentiation induced gene MUC5AC. To be noted: RNF43-mutant PDAC cells. On the procedure:
Reverse transcription and quantitative real-time PCR: After indicated treatments, cells were lysed in Tri-reagent (BioShop Canada #TSS120) and RNA extracted using the manufacturer's protocol. RNA concentration was quantified with Nanodrop1000 (Thermo Scientific) and 2 micrograms of RNA per sample was DNase I treated (ThermoFisher #AM2222). DNase treated RNA was used to make cDNA with High-Capacity cDNA Reverse Transcription Kit (ThermoFisher #4368813). Real-time PCR was performed using Power SYBR Green Master Mix on the 7900HT Fast Real-Time PCR system. Primer pairs are listed below. Analysis was done using the comparative cycle threshold (CT) method (Bookout et al., 2006) with all samples normalized to PPIB (cyclophilin B) expression. To validate the screen results HPAF-II cells were first infected with lentivirus coding for various gRNAs, transduced cells were selected for 48 hours and plated in clonogenic growth assays. […] In contrast, the growth of PANC-1 and BxPC-3 cell lines, which are wild-type for RNF43, was not inhibited by gRNAs targeting FZD5, FZD7 or CTNNB1 (FIG. 4C and FIG. 5).
A general note: Quantitative PCR measures a nucleic acid by following its amplification.

The subject of another test is ASPC-1 cells. Description: Cell viability assay (Alamar Blue) in PDAC cell lines, LGK974 comparator.

Structures are written as SMILES.

As to `Cc1cc(-c2ncc(CC(=O)Nc3ccc(-c4cnccn4)cn3)cc2C)ccn1` [LGK974], the “growth in clonogenic growth assay” value with HPAF-II cells is on record as “robust growth inhibition”. Moreover, the “growth (cell viability)” value with PaTu-8988S cells and in the test on ASPC-1 cells was “inhibited the growth” in each case. The “expression of the differentiation marker MUC5AC” value in the test with MUC5AC is given as “increased expression”.
